From patent US7553867B2, “Furan or thiophene derivative and medicinal use thereof” (Takeda Pharmaceutical Company Limited, priority 2002, dated 2009) come the findings set out here.

SMILES strings stand for the structures.

For orientation: melting point means the temperature, or range, at which the solid turns liquid.

The compound `CCc1oc(-c2ccc(C(F)(F)F)cc2)cc1CCCOc1ccc(C(C)(C)C(=O)O)cc1` [Example 6(44), 2-[4-(3-{2-Ethyl-5-[4-(trifluoromethyl)phenyl]-3-furyl}propoxy)phenyl]-2-methylpropionic acid] came in with a melting point of 102 to 103 °C.
To `CCc1oc(-c2ccc(C(F)(F)F)cc2)cc1CCCOc1cccc(C(C)(C)C(=O)O)c1` [Example 6(45), 2-[3-(3-{2-Ethyl-5-[4-(trifluoromethyl)phenyl]-3-furyl}propoxy)phenyl]-2-methylpropionic acid] belongs 94 to 95 °C; to `CCc1oc(-c2ccc(C(F)(F)F)cc2)cc1CCCOc1cc(CC(=O)O)ccc1F` [Example 6(46), [3-(3-{2-Ethyl-5-[4-(trifluoromethyl)phenyl]-3-furyl}propoxy)-4-fluorophenyl]acetic acid], 91 to 93 °C; to `CCc1oc(-c2ccc(C(F)(F)F)cc2)cc1CCCOc1ccc(F)c(CC(=O)O)c1` [Example 6(47), [5-(3-{2-Ethyl-5-[4-(trifluoromethyl)phenyl]-3-furyl}propoxy)-2-fluorophenyl]acetic acid], 128 to 129 °C.
For `CCc1oc(-c2ccc(C(F)(F)F)cc2)cc1CCCOc1cccc(CC(=O)O)c1C` [Example 6(50), [3-(3-{2-Ethyl-5-[4-(trifluoromethyl)phenyl]-3-furyl}propoxy)-2-methylphenyl]acetic acid] the value was 109 to 110 °C; for `COc1cccc(-c2cc(CSc3nc(C)c(CC(=O)O)s3)c(C)o2)c1` [Example 6(53), [2-({[5-(3-Methoxyphenyl)-2-methyl-3-furyl]methyl}thio)-4-methyl-1,3-thiazol-5-yl]acetic acid], 174 to 176 °C.
To `Cc1oc(-c2cccc(C(F)(F)F)c2)cc1COc1cccc(CSC(C)(C)C(=O)O)c1` [Example 6(59), 2-Methyl-2-{[3-({2-methyl-5-[3-(trifluoromethyl)phenyl]-3-furyl}methoxy)benzyl]thio}propionic acid] belongs 81 to 82 °C; to `COc1cccc(-c2cc(COc3ccc(OC(C)(C)C(=O)O)cc3)c(C)o2)c1` [Example 6(60), 2-(4-{[5-(3-Methoxyphenyl)-2-methyl-3-furyl]methoxy}phenoxy)-2-methylpropionic acid], 111 to 112 °C.
As for `Cc1oc(-c2cccc(C(F)(F)F)c2)cc1COc1ccc(OC(C)(C)C(=O)O)cc1` [Example 6(63), 2-Methyl-2-[4-({2-methyl-5-[3-(trifluoromethyl)phenyl]-3-furyl}methoxy)phenoxy]propionic acid], the melting point is 83 to 84 °C.
To `Cc1oc(-c2ccc(F)cc2)cc1COc1cccc(C(C)SC(C)(C)C(=O)O)c1` (stereo not shown) [Example 6(65), 2-{[1-(3-{[5-(4-Fluorophenyl)-2-methyl-3-furyl]methoxy}phenyl)ethyl]thio}-2-methylpropionic acid] belongs 89 to 90 °C.
Compound `Cc1oc(-c2ccc(C(F)(F)F)cc2)cc1COc1cccc(C(C)SC(C)(C)C(=O)O)c1` (stereo not shown) [Example 6(66), 2-Methyl-2-({1-[3-({2-methyl-5-[4-(trifluoromethyl)phenyl]-3-furyl}methoxy)phenyl]ethyl}thio)propionic acid] registered a melting point of 75 to 77 °C.
With `Cc1oc(-c2ccc(C(F)(F)F)cc2)cc1COc1ccc(OC(C)(C)C(=O)O)c(F)c1` [Example 6(68), 2-[2-Fluoro-4-({2-methyl-5-[4-(trifluoromethyl)phenyl]-3-furyl}methoxy)phenoxy]-2-methylpropionic acid], the melting point is 82 to 83 °C.
For `Cc1oc(-c2ccc(C(F)(F)F)cc2)cc1COc1cccc(COC(C)(C)C(=O)O)c1` [Example 6(70), 2-Methyl-2-{[3-({2-methyl-5-[4-(trifluoromethyl)phenyl]-3-furyl}methoxy)benzyl]oxy}propionic acid] the value was 95 to 96 °C; for `CCC(Cc1ccc(OCc2cc(-c3ccc(C(F)(F)F)cc3)oc2C)cc1C)C(=O)O` (stereo not shown) [Example 6(75), 2-[2-Methyl-4-({2-methyl-5-[4-(trifluoromethyl)phenyl]-3-furyl}methoxy)benzyl]butanoic acid], 118 to 119 °C; for `Cc1cc(OCc2cc(-c3ccc(C(F)(F)F)cc3)oc2C)ccc1CC(C)C(=O)O` (stereo not shown) [Example 6(76), 2-Methyl-3-[2-methyl-4-({2-methyl-5-[4-(trifluoromethyl)phenyl]-3-furyl}methoxy)phenyl]propionic acid], 96 to 97 °C.
As for `COC(Cc1ccc(OCc2cc(-c3ccc(C(F)(F)F)cc3)oc2C)cc1C)C(=O)O` (stereo not shown) [Example 6(77), 2-Methoxy-3-[2-methyl-4-({2-methyl-5-[4-(trifluoromethyl)phenyl]-3-furyl}methoxy)phenyl]propionic acid], the melting point is 125 to 126 °C.
As for `Cc1oc(-c2ccc(C(F)(F)F)cc2)cc1COc1ccc(CC(C)(C)C(=O)O)cc1` [Example 6(78), 2,2-Dimethyl-3-[4-({2-methyl-5-[4-(trifluoromethyl)phenyl]-3-furyl}methoxy)phenyl]propionic acid], the melting point is 125 to 127 °C.
To `COc1cc(CC(=O)O)ccc1OCc1cc(-c2ccc(C(F)(F)F)cc2)oc1C` [Example 6(81), [3-Methoxy-4-({2-methyl-5-[4-(trifluoromethyl)phenyl]-3-furyl}methoxy)phenyl]acetic acid] belongs 139 to 140 °C.
The compound `COc1ccc(CCC(=O)O)cc1OCc1cc(-c2ccc(C(F)(F)F)cc2)oc1C` [Example 6(82), 3-[4-Methoxy-3-({2-methyl-5-[4-(trifluoromethyl)phenyl]-3-furyl}methoxy)phenyl]propionic acid] yielded a melting point of 128 to 129 °C.
To `Cc1oc(-c2ccc(C(F)(F)F)cc2)cc1CCOc1cccc(CC(=O)O)c1` [Example 6(83), [3-(2-{2-Methyl-5-[4-(trifluoromethyl)phenyl]-3-furyl}ethoxy)phenyl]acetic acid] belongs 92 to 94 °C; to `Cc1oc(-c2ccc(C(F)(F)F)cc2)cc1CCCOc1cccc(CC(=O)O)c1` [Example 6(84), [3-(3-{2-Methyl-5-[4-(trifluoromethyl)phenyl]-3-furyl}propoxy)phenyl]acetic acid], 111 to 113 °C; to `Cc1oc(-c2ccc(C(F)(F)F)cc2)cc1COc1cccc(C(C)(C)C(=O)O)c1` [Example 6(85), 2-Methyl-2-[3-({2-methyl-5-[4-(trifluoromethyl)phenyl]-3-furyl}methoxy)phenyl]propionic acid], 127 to 128 °C.
Consider `Cc1oc(-c2ccc(C(F)(F)F)cc2)cc1COc1ccc(C(C)(C)C(=O)O)cc1` [Example 6(86), 2-Methyl-2-[4-({2-methyl-5-[4-(trifluoromethyl)phenyl]-3-furyl}methoxy)phenyl]propionic acid], for which the melting point fell in the range of 105 to 107 °C.
For `Cc1oc(-c2ccc(C(F)(F)F)cc2)cc1COc1cccc(OCC(=O)O)c1` [Example 6(87), [3-({2-Methyl-5-[4-(trifluoromethyl)phenyl]-3-furyl}methoxy)phenoxy]acetic acid] the value was 118 to 119 °C.
On to `Cc1oc(-c2ccc(C(F)(F)F)cc2)cc1COc1ccc(SC(C)(C)C(=O)O)cc1` [Example 6(88), 2-Methyl-2-{[4-({2-methyl-5-[4-(trifluoromethyl)phenyl]-3-furyl}methoxy)phenyl]thio}propionic acid], for which the melting point lay in the range of 128 to 129 °C.
For `Cc1oc(-c2ccc(C(F)(F)F)cc2)cc1COc1ccc2oc(CCC(=O)O)cc2c1` [Example 6(89), 3-[5-({2-Methyl-5-[4-(trifluoromethyl)phenyl]-3-furyl}methoxy)-1-benzofuran-2-yl]propionic acid] the value was 156 to 157 °C; for `Cc1oc(-c2ccc(C(F)(F)F)cc2)cc1COc1ccc2oc(CC(=O)O)cc2c1` [Example 6(90), [5-({2-Methyl-5-[4-(trifluoromethyl)phenyl]-3-furyl}methoxy)-1-benzofuran-2-yl]acetic acid], 140 to 142 °C; for `CCCc1cc(OCc2cc(-c3ccc(C(F)(F)F)cc3)oc2C)ccc1CCC(=O)O` [Example 6(91), 3-[4-({2-Methyl-5-[4-(trifluoromethyl)phenyl]-3-furyl}methoxy)-2-propylphenyl]propionic acid], 129 to 131 °C.
To `Cc1oc(-c2ccc(C(F)(F)F)cc2)cc1COc1ccc(OC(C)(C)C(=O)O)c(Cl)c1` [Example 6(92), 2-[2-Chloro-4-({2-methyl-5-[4-(trifluoromethyl)phenyl]-3-furyl}methoxy)phenoxy]-2-methylpropionic acid] belongs 92 to 93 °C; to `CCc1oc(-c2ccc(C(F)(F)F)cc2)cc1CCCOc1ccc(CC(=O)O)cc1Cl` [Example 6(93), [3-Chloro-4-(3-{2-ethyl-5-[4-(trifluoromethyl)phenyl]-3-furyl}propoxy)phenyl]acetic acid], 112 to 113 °C; to `Cc1oc(-c2ccc(C(F)(F)F)cc2)cc1COc1cc(CSC(C)(C)C(=O)O)ccc1F` [Example 6(94), 2-{[4-Fluoro-3-({2-methyl-5-[4-(trifluoromethyl)phenyl]-3-furyl}methoxy)benzyl]thio}-2-methylpropionic acid], 120 to 123 °C.
For `Cc1oc(-c2ccc(C(F)(F)F)cc2)cc1COc1ccc(F)c(CSC(C)(C)C(=O)O)c1` [Example 6(95), 2-{[2-Fluoro-5-({2-methyl-5-[4-(trifluoromethyl)phenyl]-3-furyl}methoxy)benzyl]thio}-2-methylpropionic acid] the value was 131 to 132 °C.
For `Cc1oc(-c2ccc(C(F)(F)F)cc2)cc1COc1cccc(CSC(C)(C)C(=O)O)c1F` [Example 6(96), 2-{[2-Fluoro-3-({2-methyl-5-[4-(trifluoromethyl)phenyl]-3-furyl}methoxy)benzyl]thio}-2-methylpropionic acid], the melting point was 106 to 108 °C.
For `CCc1oc(-c2ccc(C(F)(F)F)cc2)cc1CCCOc1cccc(CC(=O)O)c1F` [Example 6(97), [3-(3-{2-Ethyl-5-[4-(trifluoromethyl)phenyl]-3-furyl}propoxy)-2-fluorophenyl]acetic acid] the value was 92 to 93 °C.
